Consider 30 compounds from US10874743B2, “IRAK degraders and uses thereof” (Kymera Therapeutics, Inc., priority 2017, dated 2020).

In one assay the target is T1, IRAK4 (Homo sapiens, UniProt Q9NWZ3).
T1 sequence (Q9NWZ3 1-460): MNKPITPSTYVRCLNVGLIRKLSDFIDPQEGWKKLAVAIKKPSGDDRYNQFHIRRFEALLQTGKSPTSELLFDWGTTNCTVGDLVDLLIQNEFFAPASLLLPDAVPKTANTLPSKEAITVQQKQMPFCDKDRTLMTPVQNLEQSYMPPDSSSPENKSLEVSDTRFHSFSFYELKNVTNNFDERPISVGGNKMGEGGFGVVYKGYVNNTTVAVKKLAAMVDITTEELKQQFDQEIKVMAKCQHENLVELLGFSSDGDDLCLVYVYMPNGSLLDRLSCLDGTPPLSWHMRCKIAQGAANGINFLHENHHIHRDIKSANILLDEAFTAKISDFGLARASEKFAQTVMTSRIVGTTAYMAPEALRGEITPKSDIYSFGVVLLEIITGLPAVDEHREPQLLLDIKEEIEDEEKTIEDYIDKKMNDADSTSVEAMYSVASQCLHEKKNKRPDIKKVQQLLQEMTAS
Description: OCI-LY-10 MSD assay for IRAK4 DC50. Format: cell-based. Further details: endogenous in cells; host or cells: OCI-LY10. The conditions noted are these: OCI-LY10 cells, 4 hr incubation, concentration required to degrade 50% of protein. In short, it runs like this: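 IRAK4 level was quantified by MSD electrochemiluminescence (anti-IRAK4 capture antibody, rabbit anti-IRAK4 detection antibody) in RIPA lysates of OCI-Ly10 cells. Cells had been treated with compound for 4 hr (8-point, 3-fold serial dilution). Remaining protein versus concentration was fitted to a sigmoidal curve to give DC50.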

Another assay relates to OCI-LY10 cells. Description: OCI-LY-10 CTG cell viability assay (EC50). It is filed as cell-based. The conditions noted are these: Homo sapiens, 96 h, CellTiter-Glo cell viability, 4 days incubation, top concentration 10 μM, read-out: OCI-LY10 IRAK4 EC50. A digest of the protocol: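 OCI-LY10 cells were exposed to a 9-dose, 1:3 series (top 10 μM, 0.2% DMSO) for 4 days at 37 °C. Viability was measured by CellTiter-Glo luminescence, and EC50 came from a three-parameter logistic fit.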
On the technique in general: In ATP-based viability assays light output follows the ATP content of the culture.

Usually DC50 stands for the midpoint of the concentration-degradation curve. Low readings indicate degradation at low concentration, high ones degradation only at high concentration. One may read the EC50 as the concentration needed to bring the measured effect to its halfway point. On to `Cn1cc(NC(=O)c2coc(-c3ccnc(NCC(F)(F)F)c3)n2)c(C(=O)NCCOCCOCCOCCOCCOCCNc2cccc3c2C(=O)N(C2CCC(=O)NC2=O)C3=O)n1` (stereo not drawn) [I-449], for which the DC50 at IRAK4 was above 1000 nM. The EC50 in the assay with OCI-LY10 cells was above 1000 nM.

On IRAK4, `Cn1c(=O)n(C2CCC(=O)NC2=O)c2ccc(CCCN3CCO[C@H](CCNCc4ccc(-n5cc(NC(=O)c6coc(-c7ccnc(NCC(F)(F)F)c7)n6)c(C(N)=O)n5)cc4)C3)cc21` (stereo partly drawn) [I-576] gave a DC50 below 50 nM. For the same compound, in the assay on OCI-LY10 cells, the EC50 is below 50 nM.

Take `Cn1c(=O)n(C2CCC(=O)NC2=O)c2ccc(CCCN3CCO[C@H](CNCc4ccc(-n5cc(NC(=O)c6coc(-c7ccnc(NCC(F)(F)F)c7)n6)c(C(N)=O)n5)cc4)C3)cc21` (stereo partly drawn) [I-572]: the DC50 at IRAK4 is below 50 nM. Also, the EC50 in the assay with OCI-LY10 cells is 100 to 500 nM.

Take `CN(C[C@@H]1CN(CCCc2cccc3c2n(C)c(=O)n3C2CCC(=O)NC2=O)CCO1)C(=O)c1ccc(-n2cc(NC(=O)c3coc(-c4ccnc(NCC5CC5)c4)n3)c(C(F)F)n2)cc1` (stereo partly drawn) [I-514]: the DC50 at IRAK4 was below 50 nM. Further, the 50% effective concentration (EC50) with OCI-LY10 cells was below 50 nM.

`Cn1c(=O)n(C2CCC(=O)NC2=O)c2ccc(CNCCCCCNCc3ccc(-n4cc(NC(=O)c5coc(-c6ccnc(NCC7CC7)c6)n5)c(C(F)F)n4)cc3)cc21` (stereo not drawn) [I-542] yielded a DC50 at IRAK4 below 50 nM. The EC50 in the assay with OCI-LY10 cells was below 50 nM.

`CN(C[C@H]1CN(CCCc2cccc3c2n(C)c(=O)n3C2CCC(=O)NC2=O)CCO1)C(=O)c1ccc(-n2cc(NC(=O)c3coc(-c4ccnc(NCC5CC5)c4)n3)c(C(F)F)n2)cc1` (stereo partly drawn) [I-513] displayed a DC50 on IRAK4 below 50 nM. Further, the EC50 in the assay with OCI-LY10 cells was below 50 nM.

`Cn1c(=O)n(C2CCC(=O)NC2=O)c2ccc(CNC(=O)COCCNCc3ccc(-n4cc(NC(=O)c5coc(-c6ccnc(NCC7CC7)c6)n5)c(C(F)F)n4)cc3)cc21` (stereo not drawn) [I-543] returned a DC50 at IRAK4 below 50 nM. For the same compound, the EC50 in the assay with OCI-LY10 cells was below 50 nM.

With `O=C1CCC(n2c(=O)oc3c(CCCOCCCNCc4ccc(-n5cc(NC(=O)c6coc(-c7ccnc(NCC8CC8)c7)n6)c(C(F)F)n5)cc4)cccc32)C(=O)N1` (stereo not drawn) [I-548], on IRAK4, the DC50 was below 50 nM. In the assay on OCI-LY10 cells, the EC50 is below 50 nM.

Consider `O=C1CCC(n2c(=O)oc3c(CCCOCCCNC(=O)c4ccc(-n5cc(NC(=O)c6coc(-c7ccnc(NCC8CC8)c7)n6)c(C(F)F)n5)cc4)cccc32)C(=O)N1` (stereo not drawn) [I-475], for which, on IRAK4, the DC50 was below 50 nM. Besides, the EC50 in the assay on OCI-LY10 cells is below 50 nM.

`C=C1N(C)c2c(CCCOCCCN(C)C(=O)c3ccc(-n4cc(NC(=O)c5coc(-c6ccnc(NCC7CC7)c6)n5)c(C(F)F)n4)cc3)cccc2N1C1CCC(=O)NC1=O` (stereo not drawn) [I-473]: on IRAK4, the DC50 was below 50 nM. In addition, the EC50 with OCI-LY10 cells fell in the range of 50 to 100 nM.

On to `CN(CC(=O)N(C)CC(=O)N(C)CC(=O)N(C)CCCc1cccc2c1n(C)c(=O)n2C1CCC(=O)NC1=O)Cc1nn(C)cc1NC(=O)c1coc(-c2ccnc(NCC(F)(F)F)c2)n1` (stereo not drawn) [I-525], for which the DC50 at IRAK4 was above 1000 nM. Besides, the EC50 in the assay on OCI-LY10 cells was above 1000 nM.

Regarding `Cn1c(=O)n(C2CCC(=O)NC2=O)c2cccc(CCCCOCCCCNCc3ccc(-n4cc(NC(=O)c5coc(-c6ccnc(NCC7CC7)c6)n5)c(C(F)F)n4)cc3)c21` (stereo not drawn) [I-523], on IRAK4, the DC50 lay in the range of 50 to 100 nM. Besides, the EC50 with OCI-LY10 cells was below 50 nM.

At IRAK4, `Cn1c(=O)n(C2CCC(=O)NC2=O)c2ccc(CCCOCCOC3CCN(C(=O)c4ccc(-n5cc(NC(=O)c6coc(-c7ccnc(NCC8CC8)c7)n6)c(C(F)F)n5)cc4)CC3)cc21` (stereo not drawn) [I-517] yielded a DC50 below 50 nM. For the same compound, in the assay with OCI-LY10 cells, the EC50 is above 1000 nM.

For the compound `Cn1c(=O)n(C2CCC(=O)NC2=O)c2cccc(CCCOCCCNC(=O)c3ccc(-n4cc(NC(=O)c5coc(-c6ccnc(NCC7CC7)c6)n5)c(C(F)F)n4)cc3)c21` (stereo not drawn) [I-460], the DC50 at IRAK4 is below 50 nM. In the assay with OCI-LY10 cells, the EC50 is below 50 nM.

In turn, `Cn1c(=O)n(C2CCC(=O)NC2=O)c2ccc(CNC(=O)OCCCNCc3ccc(-n4cc(NC(=O)c5coc(-c6ccnc(NCC7CC7)c6)n5)c(C(F)F)n4)cc3)cc21` (stereo not drawn) [I-545] came in with a DC50 at IRAK4 below 50 nM. Moreover, the EC50 with OCI-LY10 cells is below 50 nM.

Turning to `CN(CC[C@H]1CN(CCCc2ccc3c(c2)n(C)c(=O)n3C2CCC(=O)NC2=O)CCO1)Cc1ccc(-n2cc(NC(=O)c3coc(-c4ccnc(NCC5CC5)c4)n3)c(C(F)F)n2)cc1` (stereo partly drawn) [I-592], the DC50 at IRAK4 was below 50 nM. The EC50 in the assay with OCI-LY10 cells is below 50 nM.

`CN(CCCOCCCc1ccc2c(c1)n(C)c(=O)n2C1CCC(=O)NC1=O)C(=O)c1ccc(-n2cc(NC(=O)c3coc(-c4ccnc(NCC5CC5)c4)n3)c(C(F)F)n2)cc1` (stereo not drawn) [I-477] had a DC50 at IRAK4 below 50 nM. Moreover, the EC50 in the assay with OCI-LY10 cells is below 50 nM.

Regarding `Cn1c(=O)n(C2CCC(=O)NC2=O)c2ccc(CCCOCCCNC(=O)c3ccc(-n4cc(NC(=O)c5coc(-c6ccnc(NCC7CC7)c6)n5)c(C(F)F)n4)cc3)cc21` (stereo not drawn) [I-459], the DC50 on IRAK4 is below 50 nM. Besides, in the assay with OCI-LY10 cells, the EC50 is below 50 nM.

Regarding `CN[C@@H](C)C(=O)N[C@H](C(=O)N1Cc2cc(OCCOCCOCCOCCOCCNCc3nn(C)cc3NC(=O)c3coc(-c4ccnc(NCC(F)(F)F)c4)n3)ccc2C[C@H]1C(=O)N[C@@H]1CCCc2ccccc21)C(C)(C)C` [I-682], the DC50 on IRAK4 was above 1000 nM. Also, the EC50 with OCI-LY10 cells was above 1000 nM.

For `CN[C@@H](C)C(=O)N[C@H](C(=O)N1CCC[C@H]1c1nc(C(=O)c2cccc(OCCOCCOCCOCCOCCNCc3ccc(-n4cc(NC(=O)c5coc(-c6ccnc(NCC7CC7)c6)n5)c(C(F)F)n4)cc3)c2)cs1)C1CCCCC1` [I-555], the DC50 on IRAK4 was in the range of 500 to 1000 nM. Moreover, in the assay with OCI-LY10 cells, the concentration giving a half-maximal response (EC50) was above 1000 nM.

In turn, `Cn1c(=O)n(C2CCC(=O)NC2=O)c2ccc(CNCCOCCNCc3ccc(-n4cc(NC(=O)c5coc(-c6ccnc(NCC7CC7)c6)n5)c(C(F)F)n4)cc3)cc21` (stereo not drawn) [I-684, 2-[2-(cyclopropylmethylamino)-4-pyridyl]-N-[3-(difluoromethyl)-1-[4-[[2-[2-[[1-(2,6-dioxo-3-piperidyl)-3-methyl-2-oxo-benzimidazol-5-yl]methylamino]ethoxy]ethylamino]methyl]phenyl]pyrazol-4-yl]oxazole-4-carboxamide] returned a DC50 at IRAK4 below 50 nM. The EC50 with OCI-LY10 cells is below 50 nM.

In the case of `CN(CCOCCOCCOCCNc1cccc2c1C(=O)N(C1CCC(=O)NC1=O)C2=O)C(=O)c1nn(C)cc1NC(=O)c1coc(-c2ccnc(NCC(F)(F)F)c2)n1` (stereo not drawn) [I-456], the DC50 at IRAK4 is above 1000 nM. Also, the EC50 in the assay on OCI-LY10 cells was above 1000 nM.

At IRAK4, `CN[C@@H](C)C(=O)N[C@H](C(=O)N1Cc2cc(OCCOCCOCCOCCOCCNC(=O)c3ccc(-n4cc(NC(=O)c5coc(-c6ccnc(NCC7CC7)c6)n5)c(C(F)F)n4)cc3)ccc2C[C@H]1C(=O)N[C@@H]1CCCc2ccccc21)C(C)(C)C` [I-519, 2-[2-(Cyclopropylmethylamino)-4-pyridyl]-N-[3-(difluoromethyl)-1-[4-[2-[2-[2-[2-[2-[[(3S)-2-[(2S)-3,3-dimethyl-2-[[(2S)-2-(methylamino)propanoyl]amino]butanoyl]-3-[[(1R)-tetralin-1-yl]carbamoyl]-3,4-dihydro-1H-isoquinolin-7-yl]oxy]ethoxy]ethoxy]ethoxy]ethoxy]ethylcarbamoyl]phenyl]pyrazol-4-yl]oxazole-4-carboxamide] came in with a DC50 of 500 to 1000 nM. In the assay with OCI-LY10 cells, the EC50 was 500 to 1000 nM.

`CN(Cc1ccc(-n2cc(NC(=O)c3coc(-c4ccnc(NCC5CC5)c4)n3)c(C(F)F)n2)cc1)C[C@@H]1CN(CCCc2ccc3c(c2)n(C)c(=O)n3C2CCC(=O)NC2=O)CCO1` (stereo partly drawn) [I-599] came in with a DC50 on IRAK4 of 100 to 500 nM. Moreover, in the assay on OCI-LY10 cells, the EC50 is below 50 nM.

`NC(=O)c1nn(-c2ccc(CNCCOCCOCCOC(=O)NCc3ccc4c(c3)CN(C3CCC(=O)NC3=O)C4=O)cc2)cc1NC(=O)c1coc(-c2ccnc(NCC(F)(F)F)c2)n1` (stereo not drawn) [I-579] gave a DC50 on IRAK4 of 100 to 500 nM. In the assay with OCI-LY10 cells, the EC50 was above 1000 nM.

Take `O=C1CCC(n2c(=O)n(CCOCCOCCNCc3ccc(-n4cc(NC(=O)c5coc(-c6ccnc(NCC7CC7)c6)n5)c(C(F)F)n4)cc3)c3ccccc32)C(=O)N1` (stereo not drawn) [I-552]: the DC50 at IRAK4 was below 50 nM. For the same compound, the EC50 in the assay with OCI-LY10 cells is below 50 nM.

`Cn1c(=O)n(C2CCC(=O)NC2=O)c2ccc(CCCOCCOCCNCc3ccc(-n4cc(NC(=O)c5coc(-c6ccnc(NCC7CC7)c6)n5)c(C(F)F)n4)cc3F)cc21` (stereo not drawn) [I-539]: on IRAK4, the DC50 was in the range of 500 to 1000 nM. Moreover, the EC50 in the assay with OCI-LY10 cells is below 50 nM.

As to `O=C1CCC(N2C[C@H](c3cccc(C#CCN4CCO[C@@H](CNC(=O)c5ccc(-n6cc(NC(=O)c7coc(-c8ccnc(NCC9CC9)c8)n7)c(C(F)F)n6)cc5)C4)c3)OC2=O)C(=O)N1` (stereo partly drawn) [I-508], the DC50 on IRAK4 was below 50 nM. The EC50 in the assay with OCI-LY10 cells lay within 50 to 100 nM.

On to `O=C1CCC(N2C[C@H](c3ccc(C#CCN4CCO[C@@H](CNC(=O)c5ccc(-n6cc(NC(=O)c7coc(-c8ccnc(NCC9CC9)c8)n7)c(C(F)F)n6)cc5)C4)cc3)OC2=O)C(=O)N1` (stereo partly drawn) [I-509], for which the DC50 at IRAK4 was below 50 nM. The EC50 in the assay on OCI-LY10 cells is below 50 nM.

`CN(CCCCOCCCCc1ccc2c(c1)n(C)c(=O)n2C1CCC(=O)NC1=O)C(=O)c1ccc(-n2cc(NC(=O)c3coc(-c4ccnc(NCC5CC5)c4)n3)c(C(F)F)n2)cc1` (stereo not drawn) [I-491]: the DC50 at IRAK4 lay within 50 to 100 nM. The EC50 with OCI-LY10 cells is below 50 nM.
